The results in this text go back to PubChem BioAssay (NCI).

SMILES strings stand for the structures.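 Step 1: Grow cells in 96-well plates. Step 2: Expose to compound for 48 hours at 5 concentrations. Step 3: Interpolate endpoints linearly; if unreached, use highest concentration. At the TGI there is no net growth.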

Among the test systems are SF-295 CNS; NCI-H460 lung; HCC-2998 colon; CAKI-1 renal; HT29 colon; M14 melanoma; DU-145 prostate; SR leukemia; MCF7 breast; PC-3 prostate.
Experiment in all cases: inhibition of tumour cell growth, NCI panel, 48 h

With `CC(C)c1cc(C(C)C)c(B(c2ccccc2)c2ccccc2)c(C(C)C)c1Br`, the TGI with SF-295 CNS, with NCI-H460 lung, with HCC-2998 colon, in the experiment on CAKI-1 renal, with HT29 colon and in the experiment with M14 melanoma was greater than 100 µM in each case. The TGI with DU-145 prostate, in the experiment on SR leukemia, in the experiment on MCF7 breast and in the experiment on PC-3 prostate was greater than 100 µM in each case.

As for `Cc1cc(=O)oc2c(CN(CCCl)CCCl)c(O)ccc12`, the TGI in the experiment with SF-295 CNS, in the experiment with NCI-H460 lung, in the experiment with HCC-2998 colon, in the experiment with CAKI-1 renal, in the experiment on HT29 colon and with M14 melanoma was greater than 100 µM in each case. Also, the TGI in the experiment with DU-145 prostate, with SR leukemia, in the experiment on MCF7 breast and in the experiment with PC-3 prostate was greater than 100 µM in each case.

Regarding `O=C(OCC(OC(=O)c1ccccc1)C1CC(C(O)C2CCCCC2)C(=O)O1)c1ccccc1` (configuration not stated), the TGI with SF-295 CNS, with NCI-H460 lung, in the experiment on HCC-2998 colon, with CAKI-1 renal, in the experiment on M14 melanoma and with DU-145 prostate was greater than 100 µM in each case. Further, the TGI was 44.8 µM with SR leukemia, 96.7 µM with MCF7 breast and greater than 100 µM with PC-3 prostate.

For `[O-][n+]1cc(SCc2ccccc2)ncc1SCc1ccccc1`, the TGI in the experiment on SF-295 CNS, in the experiment on NCI-H460 lung, in the experiment on HCC-2998 colon, in the experiment on CAKI-1 renal, with HT29 colon and with M14 melanoma was greater than 10 µM throughout. Moreover, the TGI with DU-145 prostate, with SR leukemia, in the experiment on MCF7 breast and with PC-3 prostate was greater than 10 µM each time.

Take `O=C1CSC2=NC3=C(COC/C3=C\c3ccc(F)cc3)C(c3ccc(F)cc3)N12` (configuration not stated): the TGI with SF-295 CNS, with NCI-H460 lung, with HCC-2998 colon, with CAKI-1 renal, in the experiment with M14 melanoma and in the experiment on DU-145 prostate was greater than 100 µM each time. In addition, the TGI in the experiment with SR leukemia, in the experiment on MCF7 breast and in the experiment with PC-3 prostate was greater than 100 µM in each case.

Take `CC1CN=C(N(C(=O)Nc2ccccc2)C2CCCCC2)S1` (configuration not stated): the TGI with SF-295 CNS was found to be 31.8 µM; with NCI-H460 lung it was 33.9 µM; with HCC-2998 colon, 34.6 µM; in the experiment with CAKI-1 renal, 31.2 µM; in the experiment with HT29 colon it was 32.9 µM; with DU-145 prostate it was 69.7 µM. In addition, the TGI with SR leukemia amounted to 35.1 µM; in the experiment with MCF7 breast, 31.8 µM; in the experiment on PC-3 prostate, 31.3 µM.

On to `COc1ccc(C2CCc3c(cnc4nc(N)nc(N)c34)C2)cc1` (configuration not stated), for which the TGI with SF-295 CNS, in the experiment on NCI-H460 lung, in the experiment on HCC-2998 colon, with CAKI-1 renal, with HT29 colon and in the experiment on M14 melanoma was greater than 100 µM each time. Moreover, the TGI in the experiment on DU-145 prostate is greater than 100 µM; in the experiment on SR leukemia, greater than 100 µM; in the experiment on MCF7 breast, 45.1 µM; in the experiment with PC-3 prostate it was greater than 100 µM.

Turning to `C=C1CC2C[C@H](OS(=O)(=O)c3ccc(C)cc3)C(C1)N2C` (some centres not stated), the TGI in the experiment on SF-295 CNS, with NCI-H460 lung, in the experiment with HCC-2998 colon, in the experiment on CAKI-1 renal, with HT29 colon and in the experiment on M14 melanoma was greater than 100 µM throughout. Also, the TGI in the experiment with DU-145 prostate, with SR leukemia, in the experiment on MCF7 breast and in the experiment on PC-3 prostate was greater than 100 µM in each case.

As for `COc1ccc2c(-c3csc(-c4c[nH]c5ccccc45)n3)c[nH]c2c1`, the TGI is 35.2 µM with SF-295 CNS; 13.7 µM in the experiment on NCI-H460 lung; 30.4 µM with HCC-2998 colon; 32.8 µM in the experiment with CAKI-1 renal; 7.32 µM with HT29 colon; 53.1 µM in the experiment with M14 melanoma. In addition, the TGI in the experiment with DU-145 prostate was greater than 44.8 µM; in the experiment on SR leukemia it was greater than 100 µM; in the experiment with MCF7 breast, greater than 100 µM; in the experiment with PC-3 prostate, 39.9 µM.

Take `C[S+](C)C1(c2ccccc2)C(=O)c2ccccc2C1=O`: the TGI was 99.2 µM with SF-295 CNS; greater than 100 µM with NCI-H460 lung; 42.8 µM in the experiment with HCC-2998 colon; greater than 100 µM with CAKI-1 renal; greater than 100 µM with HT29 colon; greater than 100 µM in the experiment on M14 melanoma. For the same molecule, the TGI in the experiment with DU-145 prostate, with SR leukemia, in the experiment on MCF7 breast and in the experiment with PC-3 prostate was greater than 100 µM throughout.

Regarding `S=C1NNC(=S)NN1`, the TGI in the experiment with SF-295 CNS was 0.486 µM; in the experiment on NCI-H460 lung, greater than 1 µM; in the experiment on HCC-2998 colon, greater than 1 µM; in the experiment with CAKI-1 renal, 0.475 µM; with HT29 colon, greater than 1 µM; in the experiment with M14 melanoma, greater than 1 µM. Further, the TGI with DU-145 prostate was greater than 1 µM; in the experiment on SR leukemia it was 0.671 µM; in the experiment on MCF7 breast it was greater than 1 µM; in the experiment on PC-3 prostate, greater than 1 µM.

For `CC(=O)N1C(=O)/C(=C\C(=O)c2ccc(Cl)cc2)c2ccccc21`, the TGI in the experiment on SF-295 CNS was found to be 52.7 µM; with NCI-H460 lung, 32.5 µM; in the experiment with HCC-2998 colon it was 31.5 µM; in the experiment on CAKI-1 renal, 27.6 µM; in the experiment with HT29 colon it was 20.7 µM; in the experiment with M14 melanoma, 38.8 µM. Further, the TGI was 33.7 µM in the experiment on DU-145 prostate, 6.51 µM in the experiment on SR leukemia, greater than 76.2 µM with MCF7 breast and 19.6 µM in the experiment with PC-3 prostate.

On to `O=C1CSC(c2cc3cc(Br)ccc3nc2Cl)N1c1ccc(F)c(Cl)c1` (configuration not stated), for which the TGI in the experiment with SF-295 CNS, in the experiment with NCI-H460 lung, with HCC-2998 colon, in the experiment with CAKI-1 renal, with HT29 colon and in the experiment with M14 melanoma was greater than 50 µM throughout. Further, the TGI with DU-145 prostate, in the experiment with SR leukemia, in the experiment with MCF7 breast and in the experiment with PC-3 prostate was greater than 50 µM throughout.

Turning to `NC(=O)c1ccc(S(=O)(=NS(=O)(=O)c2ccccc2)c2ccc(C(N)=O)cc2)cc1`, the TGI in the experiment with SF-295 CNS, with NCI-H460 lung, in the experiment with HCC-2998 colon, with CAKI-1 renal, in the experiment with HT29 colon and with M14 melanoma was greater than 100 µM in each case. Also, the TGI in the experiment with DU-145 prostate, with SR leukemia, in the experiment with MCF7 breast and with PC-3 prostate was greater than 100 µM throughout.
